19 molecules from US11066369B2, “N-(pyridin-2-yl)pyridine-sulfonamide derivatives and their use in the treatment of disease” (Novartis AG, priority 2016, dated 2021) can be followed below.

Where a name gives a salt, the structure may show the parent alone.

For one assay, the target named is T1, delF508-CFTR (Homo sapiens, UniProt P13569, DEL508-508).
T1 construct: functional activity of the CFTR channel (Chloride ion transport) in patient derived primary human bronchial epithelial cells; host or cells: patient-derived primary human bronchial epithelial cells (delF508-CFTR)
Put plainly: Measurement of delF508-CFTR functional activity in primary human bronchial epithelial cells (HBECs) using Multi-Transepithelial Clamp Circuit (MTECC-24) assay. It counts as cell-based. The following applies: primary CF HBECs; for MTECC24 CFHBEC- Amax %: test compound added 24h before assay plus potentiator, relative to reference combination (2 μM corrector + 0.5 μM potentiator); for EC50: test compound added 24h before assay, in the presence of potentiator, mean of at least two replicates, read-out: MTECC24 CFHBEC- EC50. The method in brief:
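Patient-derived primary delF508-CFTR HBECs, differentiated at air-liquid interface ~2 weeks, treated basolaterally with compound for 24 h, then apical and basolateral compound in HEPES pH 7.4 assay medium. Equivalent short-circuit current (Ieq) recorded on MTECC-24 with sequential amiloride, forskolin, potentiator and INH-172; normalized to 0.1% DMSO, EC50 from curve fit.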

The target of assay [1] is T2, horseradish peroxidase (HRP) tagged delF508-CFTR (Homo sapiens, UniProt P13569, DEL508-508).
T2 construct: expressed in transfected cells
Put plainly: Measurement of delF508-CFTR-HRP surface expression in CFBE41o- cells.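 For DelF508-CFTR-HRP Amax %: percent efficacy relative to reference corrector lumacaftor.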 Conditions: delF508-CFTR-HRP surface expression, CFBE41o- cells; for EC50: read-out: DelF508-CFTR-HRP EC50; for Emax: read-out: DelF508-CFTR-HRP Amax %. It counts as cell-based. The method in brief: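 CFBE41o- bronchial epithelial cells stably expressing delF508-CFTR with HRP in the fourth extracellular loop; expression induced 48h with 500 ng/mL doxycycline, then compounds added (top 10 μM, 10-point 3-fold series, ≤0.5% DMSO) for 24h at 37° C. Surface HRP measured by luminescence with cell-impermeant substrate; EC50 from logistic fit of triplicates, plate-normalized to lowest concentration; efficacy also relative to a reference corrector.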

T2 sequence (P13569 with tags, fused parts or gaps DEL508-508): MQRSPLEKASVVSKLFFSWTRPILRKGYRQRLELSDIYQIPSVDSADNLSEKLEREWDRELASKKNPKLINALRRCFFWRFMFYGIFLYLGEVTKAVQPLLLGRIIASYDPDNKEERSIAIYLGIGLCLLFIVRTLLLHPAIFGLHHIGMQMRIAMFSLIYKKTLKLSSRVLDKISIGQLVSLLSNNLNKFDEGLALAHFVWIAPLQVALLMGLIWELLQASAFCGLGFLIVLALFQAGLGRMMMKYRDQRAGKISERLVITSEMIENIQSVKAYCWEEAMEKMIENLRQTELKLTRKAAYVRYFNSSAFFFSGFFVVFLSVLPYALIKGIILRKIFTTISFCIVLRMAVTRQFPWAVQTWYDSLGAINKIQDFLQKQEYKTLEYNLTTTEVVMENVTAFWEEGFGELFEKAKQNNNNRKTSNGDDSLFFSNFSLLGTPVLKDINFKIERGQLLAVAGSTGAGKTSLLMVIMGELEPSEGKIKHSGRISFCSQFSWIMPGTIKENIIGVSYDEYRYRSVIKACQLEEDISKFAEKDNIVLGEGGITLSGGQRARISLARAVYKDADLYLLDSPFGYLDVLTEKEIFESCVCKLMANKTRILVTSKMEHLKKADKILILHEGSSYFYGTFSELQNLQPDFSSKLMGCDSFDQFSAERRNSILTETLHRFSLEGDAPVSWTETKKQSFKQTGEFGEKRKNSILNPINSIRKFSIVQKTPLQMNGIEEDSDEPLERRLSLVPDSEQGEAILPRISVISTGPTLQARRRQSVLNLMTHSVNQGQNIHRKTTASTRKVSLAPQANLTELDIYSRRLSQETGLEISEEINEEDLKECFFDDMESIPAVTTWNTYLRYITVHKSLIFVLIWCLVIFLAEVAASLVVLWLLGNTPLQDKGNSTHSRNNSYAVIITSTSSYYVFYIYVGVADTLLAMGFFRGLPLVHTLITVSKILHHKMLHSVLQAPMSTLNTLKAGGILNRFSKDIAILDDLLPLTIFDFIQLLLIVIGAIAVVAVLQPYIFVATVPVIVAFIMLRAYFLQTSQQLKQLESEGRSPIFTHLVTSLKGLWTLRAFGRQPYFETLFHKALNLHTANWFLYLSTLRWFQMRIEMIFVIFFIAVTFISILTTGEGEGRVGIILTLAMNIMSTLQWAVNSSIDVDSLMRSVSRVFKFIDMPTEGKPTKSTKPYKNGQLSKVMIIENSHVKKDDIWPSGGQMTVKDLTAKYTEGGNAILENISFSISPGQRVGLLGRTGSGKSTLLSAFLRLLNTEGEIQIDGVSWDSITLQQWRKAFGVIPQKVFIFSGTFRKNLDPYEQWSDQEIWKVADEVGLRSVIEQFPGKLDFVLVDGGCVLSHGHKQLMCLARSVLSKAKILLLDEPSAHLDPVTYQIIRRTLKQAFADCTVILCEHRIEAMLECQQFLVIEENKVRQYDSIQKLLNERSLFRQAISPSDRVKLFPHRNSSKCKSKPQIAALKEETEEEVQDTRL
T1 sequence (P13569 with tags, fused parts or gaps DEL508-508): as above

For `CC(C)c1ccccc1-c1nc(NS(=O)(=O)c2cccc(N3CCC[C@@H](C(=O)O)C3)n2)ccc1C(F)(F)F` [Example 375, (R)-1-(6-(N-(6-(2-isopropylphenyl)-5-(trifluoromethyl)pyridin-2-yl)sulfamoyl)pyridin-2-yl)piperidine-3-carboxylic Acid], at delF508-CFTR, the “MTECC24 CFHBEC- Amax %” value was found to be 63.5%. In addition, the EC50 on delF508-CFTR amounted to 0.682 nM; in assay [1], 1210 nM.
As to `Cc1ccccc1-c1nc(NS(=O)(=O)c2cccc(N3CCC[C@@H](C(=O)O)C3)n2)ccc1C(F)(F)F` [Example 332, (3R)-1-(6-{[6-(2-methylphenyl)-5-(trifluoromethyl)pyridin-2-yl]sulfamoyl}pyridin-2-yl)piperidine-3-carboxylic Acid], at delF508-CFTR, the “MTECC24 CFHBEC- Amax %” value turned out to be 84.0% and the EC50 stood at 4.75 nM. For the same molecule, in assay [1], the Emax was found to be 521% and the EC50 worked out at 1110 nM.
As to `Cc1ccccc1-c1nc(NS(=O)(=O)c2cccc(N3CC(O)C3)n2)ccc1C(F)(F)F` [Example 233, 6-(3-hydroxyazetidin-1-yl)-N-(6-(o-tolyl)-5-(trifluoromethyl)pyridin-2-yl)pyridine-2-sulfonamide], on delF508-CFTR, the “MTECC24 CFHBEC- Amax %” value is listed as 85.3% and the EC50 was 5.2 nM. In assay [1], the Emax came out at 586% and the EC50 came out at 1530 nM.
For `Cc1cccc(C)c1-c1nc(NS(=O)(=O)c2cccc(O[C@@H]3CO[C@H](CO)C3)n2)ccc1Cl` [Example 288, N-[5-chloro-6-(2,6-dimethylphenyl)pyridin-2-yl]-6-{[(3S,5S)-5-(hydroxymethyl)oxolan-3-yl]oxy}pyridine-2-sulfonamide] the same measures were 69.5%, 34.1 nM, 495% and 1710 nM.
For `COc1ccc(Cl)c(-c2nc(NS(=O)(=O)c3cccc(N4CCNCC4)n3)ccc2Cl)c1` [Example 158, N-(5-chloro-6-(2-chloro-5-methoxyphenyl)pyridin-2-yl)-6-(piperazin-1-yl)pyridine-2-sulfonamide hydrochloride], in that order: 76.6%, 93.5 nM, 230% and 4190 nM.
`Cc1c(F)cccc1-c1nc(NS(=O)(=O)c2cccc(N3CCC(C)(C(=O)O)CC3)n2)ccc1Cl` [Example 253, 1-(6-(N-(5-chloro-6-(3-fluoro-2-methylphenyl)pyridin-2-yl)sulfamoyl)pyridin-2-yl)-4-methylpiperidine-4-carboxylic Acid]: on delF508-CFTR, the “MTECC24 CFHBEC- Amax %” value amounted to 67.1% and the EC50 was determined as 27.8 nM. Also, in assay [1], the Emax is 203% and the EC50 came out at 2290 nM.
For `Cc1cccc(C)c1-c1cc(Cl)cc(NS(=O)(=O)c2cccc(N)n2)n1` [Example 10, 6-amino-N-(4-chloro-6-(2,6-dimethylphenyl)pyridin-2-yl)pyridine-2-sulfonamide], in that order: 87.0%, 5.8 nM, 592% and 1530 nM.
For `Cc1ccccc1-c1nc(NS(=O)(=O)c2cccc(N3CCNC4(CC4)C3)n2)ccc1C(F)(F)F` [Example 302, 6-(4,7-diazaspiro[2.5]octan-7-yl)-N-(6-(o-tolyl)-5-(trifluoromethyl)pyridin-2-yl)pyridine-2-sulfonamide] the same measures were 74.4%, 18.3 nM, 530% and 2320 nM.
For `Cc1ccccc1-c1nc(NS(=O)(=O)c2cccc(N3CCNCC3)n2)ccc1Cl` [Example 195, N-(5-chloro-6-(o-tolyl)pyridin-2-yl)-6-(piperazin-1-yl)pyridine-2-sulfonamide hydrochloride], in that order: 80.0%, 464 nM, 213% and 3380 nM.
With `Cc1ccc(F)cc1-c1nc(NS(=O)(=O)c2cccc(N3CCN[C@@H](C)C3)n2)ccc1C(F)(F)F` [Example 177, (S)—N-(6-(5-fluoro-2-methylphenyl)-5-(trifluoromethyl)pyridin-2-yl)-6-(3-methylpiperazin-1-yl)pyridine-2-sulfonamide Hydrochloride], on delF508-CFTR, the “MTECC24 CFHBEC- Amax %” value is listed as 79.7% and the EC50 is 232 nM. Moreover, in assay [1], the Emax stood at 447% and the EC50 came out at 2810 nM.
`Cc1cccc(C)c1-c1nc(NS(=O)(=O)c2cccc(N3CC(O)(C4CC4)C3)n2)ccc1Cl` [Example 211, N-(5-chloro-6-(2,6-dimethylphenyl)pyridin-2-yl)-6-(3-cyclopropyl-3-hydroxyazetidin-1-yl)pyridine-2-sulfonamide]: the “MTECC24 CFHBEC- Amax %” value at delF508-CFTR worked out at 71.6%. In addition, the EC50 at delF508-CFTR turned out to be 8.6 nM; in assay [1], 1760 nM.
Regarding `Cc1ccccc1-c1nc(NS(=O)(=O)c2cccc(N3CCC4(CCC(CO)[C@H]4N)CC3)n2)ccc1C(F)(F)F` (stereo partly drawn) [Example 307, 6-((1R)-1-amino-2-(hydroxymethyl)-8-azaspiro[4.5]decan-8-yl)-N-(6-(o-tolyl)-5-(trifluoromethyl)pyridin-2-yl)pyridine-2-sulfonamide], at delF508-CFTR, the “MTECC24 CFHBEC- Amax %” value stood at 61.5% and the EC50 was 45.8 nM. In assay [1], the Emax turned out to be 259% and the EC50 was found to be 3760 nM.
For `Cc1c(F)cccc1-c1nc(NS(=O)(=O)c2cccc(N)n2)ccc1Cl` [Example 12, 6-amino-N-(5-chloro-6-(3-fluoro-2-methylphenyl)pyridin-2-yl)pyridine-2-sulfonamide], at delF508-CFTR, the “MTECC24 CFHBEC- Amax %” value is given as 85.2% and the EC50 is 9.7 nM. In assay [1], the Emax stood at 555% and the EC50 was 1320 nM.
In the case of `Cc1ccccc1-c1nc(NS(=O)(=O)c2cccc(N3CCC(C(=O)O)CC3)n2)ccc1C(F)(F)F` [Example 344, 1-(6-{[6-(2-methylphenyl)-5-(trifluoromethyl)pyridin-2-yl]sulfamoyl}pyridin-2-yl)piperidine-4-carboxylic Acid], on delF508-CFTR, the “MTECC24 CFHBEC- Amax %” value stood at 46.7% and the EC50 was 22.8 nM. In addition, in assay [1], the Emax turned out to be 132% and the EC50 came out at 2810 nM.
For the molecule `Cc1cccc(C)c1-c1nc(NS(=O)(=O)c2cccc(N3CCN(C(=O)OC(C)(C)C)CC3)n2)ccc1Cl` [Example 162, tert-butyl 4-(6-(N-(5-chloro-6-(2,6-dimethylphenyl)pyridin-2-yl)sulfamoyl)pyridin-2-yl)piperazine-1-carboxylate], on delF508-CFTR, the “MTECC24 CFHBEC- Amax %” value amounted to 58.8% and the EC50 turned out to be 17.7 nM. In addition, in assay [1], the Emax is 662% and the EC50 came out at 666 nM.
As to `Cc1ccccc1-c1nc(NS(=O)(=O)c2cccc(N3CCN[C@@H](CO)C3)n2)ccc1C(F)(F)F` [Example 165, (R)-6-(3-(hydroxymethyl)piperazin-1-yl)-N-(6-(o-tolyl)-5-(trifluoromethyl)pyridin-2-yl)pyridine-2-sulfonamide hydrochloride], at delF508-CFTR, the “MTECC24 CFHBEC- Amax %” value was determined as 50.8% and the EC50 was found to be 342 nM. Moreover, in assay [1], the Emax is 401% and the 50% effective concentration (EC50) was 2900 nM.
Consider `Cc1c(F)cccc1-c1nc(NS(=O)(=O)c2cccc(N3CCCC(C)(C(=O)O)C3)n2)ccc1C(F)(F)F` (stereo not shown) [Example 362, 1-(6-{[6-(3-fluoro-2-methylphenyl)-5-(trifluoromethyl)pyridin-2-yl]sulfamoyl}pyridin-2-yl)-3-methylpiperidine-3-carboxylic Acid], for which, at delF508-CFTR, the “MTECC24 CFHBEC- Amax %” value was 77.9% and the EC50 is 0.533 nM. Also, the EC50 in assay [1] came out at 2000 nM.
Consider `Cc1c(F)cccc1-c1nc(NS(=O)(=O)c2cccc(N3CCC[C@@H](C(=O)O)C3)n2)ccc1C(F)(F)F` [Example 358, (3R)-1-(6-{[6-(3-fluoro-2-methylphenyl)-5-(trifluoromethyl)pyridin-2-yl]sulfamoyl}pyridin-2-yl)piperidine-3-carboxylic Acid], for which, on delF508-CFTR, the “MTECC24 CFHBEC- Amax %” value is 57.9% and the EC50 was 4.02 nM. Further, in assay [1], the Emax was 869% and the EC50 amounted to 2320 nM.
For `Cc1cccc(C)c1-c1nc(NS(=O)(=O)c2cccc(N3CCNCC3=O)n2)ccc1Cl` [Example 192, N-(5-chloro-6-(2,6-dimethylphenyl)pyridin-2-yl)-6-(2-oxopiperazin-1-yl)pyridine-2-sulfonamide hydrochloride], in that order: 42.3%, 16.1 nM, 279% and 2520 nM.

As usually defined, the EC50 is the concentration at which the effect is half-maximal.
